Test results as given in PMC6213981, “Crystal structures and kinetics of N-acetylneuraminate lyase from Fusobacterium nucleatum” (Acta Crystallographica. Section F, Structural Biology …, 2018).

Target: T1, FnNanA (Fusobacterium nucleatum, UniProt Q8RDN6)
T1 construct: gene nanA; pET300/NT-DEST, synthetic DNA, E. coli BL21 (DE3); tetramer
T1 sequence (Q8RDN6 1-290): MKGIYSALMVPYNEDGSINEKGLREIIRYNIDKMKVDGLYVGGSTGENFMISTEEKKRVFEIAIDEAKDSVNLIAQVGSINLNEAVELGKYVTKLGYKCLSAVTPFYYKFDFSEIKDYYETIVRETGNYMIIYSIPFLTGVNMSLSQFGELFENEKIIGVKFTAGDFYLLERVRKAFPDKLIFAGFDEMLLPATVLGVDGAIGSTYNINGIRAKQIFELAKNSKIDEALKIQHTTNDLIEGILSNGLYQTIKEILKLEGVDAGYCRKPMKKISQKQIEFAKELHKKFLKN
Test: X-ray crystal structure, […] Å
Assay type: binding
Settings: covalent; Schiff base with Lys161 in active site; crystallised at pH 9.5, 277 K

In the case of `CC(=O)C(=O)O` [pyruvate], the “X-ray crystal structure, 1.76 Å” value is reported as “N∊ atom of Lys161 is conjugated as a Schiff base to the C2 atom of pyruvate”.
